Reference: ChEMBL document CHEMBL3045680, “Synthesis and Herbicidal Activity of 4-Thiazolone Derivatives and Their Effect on Plant Secretory Pathway” (J Pestic Sci, 2003)
Activity calls are given as the source filed them. No cut-off for these calls is given here.

Experiments:
[1] = system: Echinochloa oryzicola; test: Post-emergence herbicidal activity against Echinochloa oryzicola assessed as weed killing at 0.5 kg ai/ha measured 30 days after compound treatment under green house conditions; assay type: functional
[2] = system: Echinochloa oryzicola; test: Post-emergence herbicidal activity against Echinochloa oryzicola assessed as weed killing at 2 kg ai/ha measured 30 days after compound treatment under green house conditions; assay type: functional
[3] = system: Oryza sativa; test: Post-emergence phytotoxicity against Oryza sativa (rice) plants exposed to compound applied on surface of water 7 days after transplantation assessed as plant killing at 0.5 kg ai/ha measured 3 weeks after compound treatment under green house conditions; assay type: organism-based; conditions: other, 504 h
[4] = system: Echinochloa oryzicola; test: Pre-emergence herbicidal activity against Echinochloa oryzicola assessed as weed killing at 2 kg ai/ha measured 30 days after compound treatment under green house conditions; assay type: functional
[5] = system: Schoenoplectiella juncoides; test: Pre-emergence herbicidal activity against Schoenoplectiella juncoides assessed as weed killing at 2 kg ai/ha measured 30 days after compound treatment under green house conditions; assay type: functional
[6] = system: Schoenoplectiella juncoides; test: Post-emergence herbicidal activity against Schoenoplectiella juncoides assessed as weed killing at 2 kg ai/ha measured 30 days after compound treatment under green house conditions; assay type: functional
[7] = system: Echinochloa oryzicola; test: (§1) Induction of plant secretory pathway perturbations in Echinochloa oryzicola seedlings root tips area exposed to 10 uM compound 3 days after sowing assessed as induction of curved cell wall membrane-cell wall interface measured after 8 hr days post compound treatment by electron microscopy; assay type: functional, organism-based
[8] = system: Cyperus serotinus; test: Herbicidal activity against Cyperus serotinus assessed as compound application rate causing complete weed control measured 30 days after compound treatment under green house conditions; assay type: functional
[9] = system: Echinochloa oryzicola; test: Induction of necrotic symptoms in root tip of Echinochloa oryzicola seedlings exposed to 10 uM compound measured after 24 to 72 hr days post compound treatment; assay type: functional, organism-based
[10] = system: Echinochloa oryzicola; test: Induction of plant secretory pathway perturbations in Echinochloa oryzicola seedlings root tips area exposed to 10 uM compound 3 days after sowing assessed as induction of obscuring of cell wall measured after 4 hr days post compound treatment by electron microscopy; assay type: functional, organism-based
[11] = system: Echinochloa oryzicola; test: Induction of plant secretory pathway perturbations in Echinochloa oryzicola seedlings exposed to 10 uM compound 3 days after sowing assessed as induction of morphological changes in root tip golgi apparatus measured after 4 hr days post compound treatment by electron microscopy; assay type: functional, organism-based
[12] = system: Echinochloa oryzicola; test: Inhibition of shoot growth of Echinochloa oryzicola seedlings exposed to 10 uM compound 3 days after sowing measured after 24 to 72 hr days post compound treatment; assay type: functional, organism-based
[13] = system: Echinochloa oryzicola; test: Induction of plant secretory pathway perturbations in Echinochloa oryzicola seedlings exposed to 10 uM compound 3 days after sowing assessed as induction of accumulation of dense vesicles around root tip golgi apparatus measured after 4 hr days post compound treatment by electron microscopy; assay type: functional, organism-based
[14] = system: Pontederia vaginalis; test: Herbicidal activity against Monochoria vaginalis assessed as compound application rate causing complete weed control measured 30 days after compound treatment under green house conditions; assay type: functional
[15] = system: Echinochloa oryzicola; test: as §1, with “vesicles accumulation at plasma” for “curved cell wall”; assay type: functional, organism-based
[16] = system: Echinochloa oryzicola; test: as §1, with “vesicles accumulation at plasma” for “curved cell wall”, “4” for “8”; assay type: functional, organism-based
[17] = system: Rotala indica; test: Herbicidal activity against Rotala indica assessed as compound application rate causing complete weed control measured 30 days after compound treatment under green house conditions; assay type: functional
[18] = system: Echinochloa oryzicola; test: Induction of plant secretory pathway perturbations in Echinochloa oryzicola seedlings root tips area exposed to 10 uM compound 3 days after sowing assessed as induction of curved cell wall membrane-cell wall interface measured after 4 hr days post compound treatment by electron microscopy; assay type: functional, organism-based
[19] = system: Echinochloa oryzicola; test: Herbicidal activity against Echinochloa oryzicola assessed as compound application rate causing complete weed control measured 30 days after compound treatment under green house conditions; assay type: functional
[20] = system: Echinochloa oryzicola; test: Induction of plant secretory pathway perturbations in Echinochloa oryzicola seedlings root tips area exposed to 10 uM compound 3 days after sowing assessed as induction of low electron dense area at membrane-cell wall interface measured after 4 hr days post compound treatment by electron microscopy; assay type: functional, organism-based
[21] = system: Lindernia procumbens; test: Herbicidal activity against Lindernia procumbens assessed as compound application rate causing complete weed control measured 30 days after compound treatment under green house conditions; assay type: functional
[22] = system: Echinochloa oryzicola; test: Inhibition of root growth of Echinochloa oryzicola seedlings exposed to 10 uM compound 3 days after sowing measured after 24 to 72 hr days post compound treatment; assay type: functional, organism-based
[23] = system: Echinochloa oryzicola; test: Induction of plant secretory pathway perturbations in Echinochloa oryzicola seedlings exposed to 10 uM compound 3 days after sowing assessed as induction of cytological changes in root apical tip area measured after 4 to 8 hr days post compound treatment by electron microscopy; assay type: functional, organism-based
[24] = system: Echinochloa oryzicola; test: Inhibition of shoot growth of Echinochloa oryzicola seedlings exposed to 10 uM compound immediately after sowing measured after 2 days post compound treatment; assay type: functional, organism-based
[25] = system: Echinochloa oryzicola; test: Induction of plant secretory pathway perturbations in Echinochloa oryzicola seedlings root tips area exposed to 10 uM compound 3 days after sowing assessed as induction of endoplasmic reticulum swellings measured after 4 hr days post compound treatment by electron microscopy; assay type: functional, organism-based
[26] = system: Schoenoplectiella juncoides; test: Herbicidal activity against Schoenoplectiella juncoides assessed as compound application rate causing complete weed control measured 30 days after compound treatment under green house conditions; assay type: functional
[27] = system: Echinochloa oryzicola; test: Inhibition of root growth of Echinochloa oryzicola seedlings exposed to 10 uM compound immediately after sowing measured after 3 days post compound treatment; assay type: functional, organism-based

## CCC1(CCCl)SC(N2c3ccccc3OCC2C)=NC1=O (stereo not given)
[1]
  Activity: 60%
[2]
  Activity: 100%
[3]
  Activity: 0%

## CC1COc2ccccc2N1C1=NC(=O)C(C)(C)S1 (stereo not given)
[4]
  Activity: 100%
[1]
  Activity: 60%
[5]
  Activity: 100%
[2]
  Activity: 100%
[6]
  Activity: 80%
[3]
  Activity: 20%

## CC1COc2ccccc2N1C1=NC(=O)C(C)(CCCl)S1 (stereo not given)
[7]
  Activity: Active
[8]
  Activity: 0.25 KgAi/ha
[9]
  Activity: Active
[10]
  Activity: Active
[11]
  Activity: Active
[12]
  growth inhibition (GI): inactive
[13]
  Activity: Active
[14]
  Activity: 0.25 KgAi/ha
[15]
  Activity: Active
[16]
  Activity: Active
[17]
  Activity: 0.25 KgAi/ha
[18]
  Activity: Active
[1]
  Activity: 70%
[19]
  Activity: 0.25 KgAi/ha
[20]
  Activity: Active
[2]
  Activity: 80%
[21]
  Activity: 0.25 KgAi/ha
[22]
  growth inhibition (GI): Active
[23]
  Activity: Active
[24]
  growth inhibition (GI): Active
[3]
  Activity: 0%
[25]
  Activity: Active
[26]
  Activity: 0.25 KgAi/ha
[27]
  growth inhibition (GI): Active

## CC1CCc2ccccc2N1C1=NC(=O)C(C)(C)S1 (stereo not given)
[4]
  Activity: 90%
[5]
  Activity: 90%
[2]
  Activity: 90%
[6]
  Activity: 80%

## CCC1(CCl)SC(N2c3ccccc3OCC2C)=NC1=O (stereo not given)
[1]
  Activity: 50%
[2]
  Activity: 100%
[3]
  Activity: 20%

## CCN(C1=NC(=O)C(C)(C)S1)c1ccccc1
[4]
  Activity: 80%
[5]
  Activity: 80%
[2]
  Activity: 60%
[6]
  Activity: 20%

## CN(C1=NC(=O)CS1)c1ccccc1
[4]
  Activity: 0%
[5]
  Activity: 0%
[2]
  Activity: 0%
[6]
  Activity: 0%

## CN(C1=NC(=O)C(C)(CCCl)S1)c1ccccc1 (stereo not given)
[4]
  Activity: 80%
[5]
  Activity: 90%
[2]
  Activity: 100%
[6]
  Activity: 80%

## CC1SC(N(C)c2ccccc2)=NC1=O (stereo not given)
[4]
  Activity: 20%
[5]
  Activity: 20%
[2]
  Activity: 20%
[6]
  Activity: 20%

## CC1(C)SC(N2CCc3ccccc32)=NC1=O
[4]
  Activity: 80%
[5]
  Activity: 80%
[2]
  Activity: 80%
[6]
  Activity: 20%

## CCCCN(C)C1=NC(=O)C(C)(C)S1
[4]
  Activity: 0%
[5]
  Activity: 0%
[2]
  Activity: 0%
[6]
  Activity: 0%

## CC1(C)SC(N2CCCc3ccccc32)=NC1=O
[4]
  Activity: 90%
[5]
  Activity: 90%
[2]
  Activity: 90%
[6]
  Activity: 60%

## CC1(C)SC(N2CCOc3ccccc32)=NC1=O
[4]
  Activity: 90%
[5]
  Activity: 80%
[2]
  Activity: 90%
[6]
  Activity: 40%

## CCCC1(C)SC(N(C)c2ccccc2)=NC1=O (stereo not given)
[4]
  Activity: 80%
[5]
  Activity: 80%
[2]
  Activity: 70%
[6]
  Activity: 20%

## CN(Cc1ccccc1)C1=NC(=O)C(C)(C)S1
[4]
  Activity: 20%
[5]
  Activity: 40%
[2]
  Activity: 0%
[6]
  Activity: 0%

## CCN(CC)C(=O)n1cnc(S(=O)(=O)c2c(C)cc(C)cc2C)n1 [CAFENSTROLE]
[1]
  Activity: 80%
[3]
  Activity: 20%

## CN(C1=NC(=O)C(C)(C)S1)c1ccccc1
[4]
  Activity: 90%
[5]
  Activity: 80%
[2]
  Activity: 80%
[6]
  Activity: 60%

## CCC1(C)SC(N2c3ccccc3OCC2C)=NC1=O (stereo not given)
[1]
  Activity: 60%
[2]
  Activity: 100%
[3]
  Activity: 0%

## CCC1(C)SC(N(C)c2ccccc2)=NC1=O (stereo not given)
[4]
  Activity: 80%
[5]
  Activity: 90%
[2]
  Activity: 80%
[6]
  Activity: 40%

## CC1(C)SC(Nc2ccccc2)=NC1=O
[4]
  Activity: 80%
[5]
  Activity: 80%
[2]
  Activity: 60%
[6]
  Activity: 60%

## CCC1(CC)SC(N2c3ccccc3OCC2C)=NC1=O (stereo not given)
[1]
  Activity: 70%
[2]
  Activity: 100%
[3]
  Activity: 0%
